Drawing on patent publication EP0747346B1, “N-acyl-2 aryl cyclopropylmethylamine derivatives as melatonergics” (BRISTOL-MYERS SQUIBB COMPANY, priority 1995, dated 1996), this text covers IC50 for 35 compounds.

The target in the first assay is T1, human ML1A (Homo sapiens, UniProt P48039).
T1 construct: expressed in transfected cells; host or cells: COS-1 cells, transient transfection (DEAE-dextran) with pcDNAI; membrane homogenates
T1 sequence (P48039 whole entry): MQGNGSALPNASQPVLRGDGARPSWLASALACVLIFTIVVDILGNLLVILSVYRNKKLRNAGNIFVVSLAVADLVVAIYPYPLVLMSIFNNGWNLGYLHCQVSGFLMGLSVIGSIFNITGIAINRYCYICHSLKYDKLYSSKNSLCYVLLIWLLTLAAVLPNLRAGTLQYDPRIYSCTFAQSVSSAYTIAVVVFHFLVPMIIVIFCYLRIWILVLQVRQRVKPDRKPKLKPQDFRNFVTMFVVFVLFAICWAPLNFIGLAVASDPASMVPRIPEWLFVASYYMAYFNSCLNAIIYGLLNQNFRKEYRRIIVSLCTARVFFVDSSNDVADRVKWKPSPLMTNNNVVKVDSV
Briefly: Measurement of melatonergic binding: displacement of 2-[125I]-iodomelatonin from membranes of COS-1 cells transfected with human ML1A cDNA. The conditions noted are these: Binding affinity (IC50) at the human melatonin receptor, Table 5: displacement of 2-[125I]-Iodomelatonin; Formula I compounds with R1 and R = H, G = methylene. How it is done: Example 145 (Measurement of Melatonergic Binding)
The melatonergic binding of the compounds of Formula I was determined by a modification of the method of Reppert, S. M. et al. (Neuron, Volume 13, pages 1177-1185, 1994). […] The reagents, membranes, and other parameters used in the assay are described below: Reagents: • (a) 50 mM Tris buffer containing 12.5 mM MgCl2, and 2 mM EDTA (pH 7.4 at 37 °C). • (b) Wash buffer: 20 mM Tris base containing 2 mM MgCl2 (pH 7.4 at room temperature). • (c) 6-Chloromelatonin (10^-5 M final concentration). • (d) 2-[^125I]-Iodomelatonin (100 pM final concentration). (Source: NEN) Membrane preparation: The cDNA (human ML1A) in pcDNAI was introduced into COS-1 cells by the DEAE-dextran method. Three days later, after media removal, the plates were washed with buffered saline; the cells removed using Hank's balanced salt solution and pelleted. The supernant was discarded and the pellets frozen. For membrane homogenates, the pellets were thawed and resuspended in TME buffer, Tris base, MgCl2, EDTA (pH 7.4 at 37 °C), and supplemented with aprotinin, leupeptin, and phenylmethylsulfonyl fluoride. The cells were homogenized and centrifuged; the resulting pellet resuspended in TME and frozen. At assay, the small aliquot was thawed on ice and resuspended in TME buffer. Incubation: 37 °C for 1 hour. Reaction is terminated by filtration.
Usually IC50 stands for the concentration at which inhibition is half-maximal. `CCCC(=O)NC[C@@H]1C[C@H]1c1cccc(OC(C)C)c1` (racemic) [Example 8, (trans)-N-[[2-[3-(Methylethoxy)phenyl]cyclopropyl]methyl] butanamide] returned an IC50 of 40 to 250 nM. For the compound `CCCC(=O)NC[C@@H]1C[C@H]1c1cccc(F)c1` (racemic) [Example 44], the IC50 lay within 40 to 250 nM.

Compound `CCCC(=O)NC[C@@H]1C[C@H]1c1cccc(OC(F)(F)F)c1` (single isomer, unassigned) [Example 64] registered an IC50 of 5 to 40 nM.

For `CCCC(=O)NC[C@@H]1C[C@H]1c1cc(F)ccc1Br` (single isomer, unassigned) [Example 66], the IC50 is 5 to 40 nM. `CCCC(=O)NC[C@@H]1C[C@H]1c1ccc(I)c(OC(F)(F)F)c1` (single isomer, unassigned) [Example 69] registered an IC50 of 5 to 40 nM. In turn, `CCCC(=O)NC[C@@H]1C[C@H]1c1cc(F)ccc1I` (single isomer, unassigned) [Example 70] showed an IC50 of 40 to 250 nM. `CCCC(=O)NC[C@@H]1C[C@H]1c1ccc(I)c(F)c1` (single isomer, unassigned) [Example 71, (-)-(trans)-N-[[2-(3-Fluoro-4-iodophenyl)cycloprop-1-yl]methyl] butanamide] came in with an IC50 of 40 to 250 nM. Compound `CCCC(=O)NC[C@@H]1C[C@H]1c1cccc(O)c1` (single isomer, unassigned) [Example 79] registered an IC50 of 40 to 250 nM. For the compound `CCCC(=O)NC[C@@H]1C[C@H]1c1cccc(C(F)(F)C(F)(F)F)c1` (single isomer, unassigned) [Example 89], the IC50 lay within 40 to 250 nM.

The same assay, now with this note: Binding affinity (IC50) at the human melatonin receptor, Table 6: displacement of 2-[125I]-Iodomelatonin; Formula I compounds with X = OCH3, Y and Z = H, R1 = H.
For `CCCC(=O)NC[C@H]1[C@H](c2cccc(OC)c2)C1(F)F` (racemic) [Example 12, (±)-(trans)-[2,2-Difluoro-3-(3-methoxyphenyl)-cyclopropylmethyl] butanamide], the IC50 is < 5 nM. As to `CCCC(=O)NC[C@H]1[C@H](c2cccc(OC)c2)C1(C)C` (racemic) [Example 17, (trans)-N-[[3-(3-methoxyphenyl)-2,2-dimethyl-1-cyclopropyl]methyl]butanamide], the IC50 is 250 to 600 nM.

On to `CCCC(=O)NC(C)[C@@H]1C[C@H]1c1cccc(OC)c1` (single isomer, unassigned) [Example 136], for which the IC50 lay in the range of 5 to 40 nM. As for `CCCC(=O)NC(C)[C@@H]1C[C@H]1c1cccc(OC)c1` (single isomer, unassigned; (-)) [Example 14, (-)-(trans)-N-[1-[2-(3-Methoxyphenyl)cyclopropyl]ethyl] butanamide], the IC50 fell in the range of 40 to 250 nM.

The same assay, now with this note: Table 4 (continued): displacement of 2-[125I]-Iodomelatonin; Formula I compounds with X = OCH3, R = H, G = methylene.
`CCCC(=O)NC[C@@H]1C[C@H]1c1ccc(Cl)c(OC)c1` (racemic) [Example 27, (trans)-N-[[2-(4-Chloro-3-methoxyphenyl)cyclopropyl]methyl] butanamide]: the IC50 was < 5 nM.

For `COc1cccc([C@@H]2C[C@H]2CNC(=O)CCCCl)c1` (single isomer, unassigned) [Example 35], the IC50 fell in the range of 5 to 40 nM. Take `COc1cccc([C@@H]2C[C@H]2CNC(=O)C2CCCC2)c1` (single isomer, unassigned) [Example 37]: the IC50 was in the range of 250 to 600 nM.

For `COc1cccc([C@@H]2C[C@H]2CNC(=O)CC(F)(F)F)c1` (single isomer, unassigned) [Example 42, (-)-(trans)-3,3,3-Trifluor-N-[[2-(3-methoxyphenyl)cycloprop-1-yl]methyl] propanamide], the IC50 is < 5 nM.

As to `CCCC(=O)NC[C@@H]1C[C@H]1c1cc(OC)ccc1I` [Example 32, (-)-(trans)-N-[[2-(2-Iodo-5-methoxyphenyl)cyclopropyl]methyl] butanamide], the IC50 was < 5 nM. `CCCC(=O)NC[C@@H]1C[C@H]1c1ccc(I)c(OC)c1` [Example 33, (-)-(trans)-N-[[2-(4-Iodo-3-methoxyphenyl)cycloprop-1-yl]methyl] butanamide] yielded a half-maximal inhibitory concentration (IC50) of 5 to 40 nM. As for `CCCC(=O)NC[C@@H]1C[C@H]1c1cc(OC)ccc1-c1ccc(C(F)(F)F)cc1` [Example 34, (-)-(trans)-N-[[2-[4-Methoxy-4'-(trifluoromethyl) [1,1'-biphenyl]-2yl]cycloprop-1-yl]methyl] butanamide], the 50% inhibitory concentration (IC50) was in the range of 5 to 40 nM. The same measure, in the same setting: the figure for `COc1cccc([C@@H]2C[C@H]2CNC(=O)C2CC2)c1` [Example 36, (-)-(trans)-N-[[2-(3-Methoxyphenyl)cycloprop-1-yl]methyl]cyclopropane carboxamide] is < 5 nM; for `CNC(=O)NC[C@@H]1C[C@H]1c1cccc(OC)c1` [Example 39, (-)-(trans)-N-[[2-(3-Methoxyphenyl)cycloprop-1-yl]methyl]-N'-methyl urea] it is < 5 nM; for `COc1cccc([C@@H]2C[C@H]2CNC(C)=O)c1` [Example 41, (-)-(trans)-N-[[2-(3-Methoxyphenyl)cycloprop-1-yl]methyl] acetamide] it is < 5 nM.

Still in this assay, the particulars now being: displacement of 2-[125I]-Iodomelatonin (100 pM); COS-1 membranes, human ML1A; 37 °C for 1 hour.
In the case of `CCCC(=O)NC[C@@H]1C[C@H]1c1cccc(OCC2CC2c2cccc(OC)c2)c1` (mixture of isomers) [Example 132, (trans)-N-[[2-[3-[[2-(3-Methoxyphenyl)cycloprop-1-yl]methoxy]phenyl]cycloprop-1-yl]methyl] butanamide], the IC50 was < 5 nM. Still for that read-out and setting: then `CCCC(=O)NC[C@@H]1C[C@H]1c1cc(OC)c(Br)cc1Br` (relative stereo) [Example 5, (trans)-N-[[2-(2,4-Dibromo-5-methoxyphenyl)cyclopropyl]methyl] butanamide], with < 5 nM; and `CCCC(=O)NC[C@@H]1C[C@H]1c1cc(OC)ccc1NC(=O)CCC` (relative stereo) [Example 13, (trans)-N-[[2-(2-Butyrylamino-5-methoxyphenyl)cyclopropyl]methyl] butanamide], with 250 to 600 nM; and `CCCC(=O)NC[C@@H]1C[C@H]1c1cccc(OC)c1` (single isomer, unassigned) [Example 3a, (+)-(trans)-N-[[2-(3-Methoxyphenyl)cyclopropyl]methyl]butanamide], with 5 to 40 nM. Take `CCCC(=O)NC[C@@H]1C[C@H]1c1cc(OC)ccc1C#Cc1ccccc1` (single isomer, unassigned) [Example 9a]: the half-inhibitory concentration (IC50) was < 5 nM. In turn, `CCCC(=O)NC[C@@H]1C[C@H]1c1cc(OC)ccc1CCc1ccccc1` (single isomer, unassigned) [Example 9b] gave an IC50 of 5 to 40 nM.

Turning to `CCCC(=O)NC[C@@H]1C[C@H]1c1cccc(OC)c1` [Example 3b, (-)-(trans)-N-[[2-(3-Methoxyphenyl)cyclopropyl]methyl] butanamide], the IC50 was < 5 nM.

Turning to `CCCC(=O)NC[C@@H]1C[C@H]1c1cc(OC)ccc1C#N` [Example 10, (-)-(trans)-N-[[2-(2-Cyano-5-methoxyphenyl]cyclopropyl]methyl] butanamide], the IC50 is 5 to 40 nM. `CCCC(=O)NC[C@@H]1C[C@H]1c1cc(OC)ccc1-c1ccccc1` [Example 11, (-)-(trans)-N-[[2-(2-Phenyl-5-methoxyphenyl]cyclopropyl]methyl] butanamide] returned an IC50 of 5 to 40 nM.

Compound `COc1cccc([C@@H]2C[C@H]2CNC(=O)C(C)C)c1` [Example 22, (-)-(trans)-N-[[2-(3-Methoxyphenyl)cyclopropyl]methyl]-2-methylpropanamide] displayed an IC50 of 5 to 40 nM. The compound `CCCC(=O)NC[C@@H]1C[C@H]1c1cccc(OCC2C(c3cccc(OC)c3)C2(C)C)c1` (some centres unmarked) [Example 131] yielded an IC50 of 5 to 40 nM.

The assay is the same for the next values; noted with them: read-out: Binding affinity (IC50) at the human melatonin receptor; Table 5: displacement of 2-[125I]-Iodomelatonin; Formula I compounds with R1 and R = H, G = methylene.
As for “(trans)-N-[2-[(3-Trideuteromethoxyphenyl)cycloprop-1-yl]methyl] butanamide [Example 111]”, the IC50 was < 5 nM.
